In experiment [1] the target is T1, human glucagon receptor (Homo sapiens (Human), UniProt P47871). The experiment is described as follows: Human Glucagon SPA Assay. As to conditions: membrane from chem-1 cells stably transfected with the human glucagon receptor; 125 pM [125I]Glucagon-Cex; Ki by Cheng-Prusoff equation; read-out: Binding Ki. As for the experimental part: The Glucagon SPA assay is used to determine the ability of test compounds to block the binding of glucagon-cex to the glucagon receptor. Test compounds are re-suspended and serially diluted in 100% DMSO. 1 ul of test compound at the desired concentrations is spotted into the appropriate wells of 96 well low binding white clear bottom plate (Corning). 1 ul of DMSO is spotted into total binding wells. 1 ul of a known glucagon antagonist at a concentration of 20 uM is added to non specific binding wells. […] All assay ingredients with the exception of test compounds are re-suspended in the following buffer; 50 mM Hepes pH 7.4; 5 mM MgCl2; 1 mM CaCl; 5% glycerol and 0.2% BSA. Following a 6-10 hr incubation at room temperature the amount of hot ligand bound to the cell membranes is determined by reading the plates on a Wallac Trilux radioactive emission detector. Data is analyzed using Pfizer's Data analysis program. IC50 values are then determined from the generated sigmoidal dose response curves. Ki values are calculated using Cheng-Prusoff equation.
T1 sequence (P47871 26-477): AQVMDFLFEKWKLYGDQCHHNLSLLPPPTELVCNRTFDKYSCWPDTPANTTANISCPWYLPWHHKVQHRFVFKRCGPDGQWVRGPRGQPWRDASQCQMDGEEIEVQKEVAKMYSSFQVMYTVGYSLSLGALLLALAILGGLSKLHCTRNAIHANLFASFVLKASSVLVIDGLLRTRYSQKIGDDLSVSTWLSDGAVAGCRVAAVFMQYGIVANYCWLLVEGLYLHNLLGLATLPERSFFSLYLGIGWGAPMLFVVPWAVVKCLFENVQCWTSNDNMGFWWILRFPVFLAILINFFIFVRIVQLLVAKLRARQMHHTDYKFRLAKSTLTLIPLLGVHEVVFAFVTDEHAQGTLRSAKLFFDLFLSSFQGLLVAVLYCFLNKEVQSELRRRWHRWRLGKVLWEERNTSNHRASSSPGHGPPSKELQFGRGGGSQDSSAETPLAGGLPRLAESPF

For experiment [2], the target named is T1, human glucagon receptor. The experiment is described as follows: Glucagon cAMP Assay. The experiment is classed as cell-based. As to conditions: CHOK1 cells stably transfected with the human glucagon receptor; 100 pM glucagon challenge; Kb from IC50 by modified Cheng-Prusoff equation. As for the experimental part:
The Cisbio cAMP detection assay is used to determine the ability of punitive glucagon antagonist to block glucagon induced cAMP production. Potential glucagon antagonists are re-suspended and diluted in 100% DMSO. Prior to use in the Glucagon cAMP assay 100×DMSO compound stocks are diluted 20× with DMEM-F12 media (Invitogen) containing either 0.1% or 4% BSA. 2 uls of 5× compound stocks are spotted into the appropriate wells of low binding white solid bottom 384 well plates (Corning). 2 uls of 5% DMSO or known glucagon antagonist are added to each plate to define the assay window. CHOK1 cells stably transfected with the human glucagon receptor are removed from culture flasks with cell dissociation buffer. Cell pellets are re-suspended, at a concentration of 8.3e^5 cells/ml in DMEM-F12 with or without 4% BSA and 200 uM IBMX. 6 uls of cell suspensions are added to the assay plates. Plates are incubated for 20 min at room temperature prior to the addition of a 100 pM challenge dose of glucagon. On a separate plate glucagon dose response curves are run to determine the EC50 of glucagon. After a 30 min room temperature incubation the reaction is terminated by the addition of lysis buffer containing the cAMP detection reagents. Plates are incubated for an additional 60 min at room temperature prior to being read on the Perkin Elmer fluorescent plate reader. Raw is converted to nM of cAMP produced based on a cAMP standard curve. Converted data is then analyzed using the Pfizer data analysis program. IC50 values are determined from the generated sigmoidal dose response curves. Kb values are the calculated using a modified Cheng-Prusoff equation.

SMILES strings stand for the structures. Where a name gives a salt, the structure may show the parent alone.

Regarding `CC(C)CC(Nc1cnc2ccccc2c1)c1ccc(C(=O)NCCC(=O)O)cc1` (racemic) [Example 3, (+/−)3-{4-[3-methyl-1-(quinolin-3-ylamino)-butyl]-benzoylamino}-propionic acid], the inhibition constant Ki on human glucagon receptor [1] came to 240 nM. Also, the Kb on human glucagon receptor [2] came out at 270 nM.

On to `CC(C)CC(Nc1ncc2ccc(F)cc2n1)c1ccc(C(=O)NCCC(=O)O)cc1` (racemic) [Example 4, (+/−)-3-{4-[1-(7-fluoro-quinazolin-2-ylamino)-3-methyl-butyl]-benzoylamino}-propionic acid], for which the Ki at human glucagon receptor [1] was 7360 nM. The molecule further came in with a Kb on human glucagon receptor [2] of 5100 nM.

Regarding `CC(C)CC(Nc1ccc2ccccc2n1)c1ccc(C(=O)NCCC(=O)O)cc1` (racemic) [Example 5, (+/−)-3-{4-[3-methyl-1-(quinolin-2-ylamino)-butyl]-benzoylamino}-propionic acid], the Ki on human glucagon receptor [1] is 452 nM. The molecule further displayed a Kb at human glucagon receptor [2] of 380 nM.

With `COc1cccc2ccc(NC(CC(C)C)c3ccc(C(=O)NCCC(=O)O)cc3)nc12` (racemic) [Example 6, (+/−)-3-{4-[1-(8-methoxy-quinolin-2-ylamino)-3-methyl-butyl]-benzoylamino}-propionic acid], the Ki on human glucagon receptor [1] stood at 1860 nM. The molecule further showed a Kb on human glucagon receptor [2] of 620 nM.

In turn, `CC(C)CC(Nc1cnc2ccccc2n1)c1ccc(C(=O)NCCC(=O)O)cc1` (racemic) [Example 7, (+/−)-3-{4-[3-methyl-1-(quinoxalin-2-ylamino)-butyl]-benzoylamino}-propionic acid] yielded a Kb at human glucagon receptor [2] of 1000 nM.

With `Cc1nc2ccccc2nc1NC(CC(C)C)c1ccc(C(=O)NCCC(=O)O)cc1` (racemic) [Example 8, (+/−)-3-{4-[3-methyl-1-(3-methyl-quinoxalin-2-ylamino)-butyl]-benzoylamino}-propionic acid], at human glucagon receptor [1], the inhibitory constant (Ki) is 979 nM. On human glucagon receptor [2], the Kb came out at 1000 nM.

For `CC(C)CC(Nc1cc2ccccc2cn1)c1ccc(C(=O)NCCC(=O)O)cc1` (racemic) [Example 9, (+/−)-3-{4-[1-(isoquinolin-3-ylamino)-3-methyl-butyl]-benzoylamino}-propionic acid trifluoroacetate], the Ki on human glucagon receptor [1] is 531 nM. On human glucagon receptor [2], the Kb came to 450 nM.

For the molecule `Cc1cc(NC(CC(C)C)c2ccc(C(=O)NCCC(=O)O)cc2)nc2ccccc12` (racemic) [Example 10, (+/−)-3-{4-[3-methyl-1-(4-methyl-quinolin-2-ylamino)-butyl]-benzoylamino}-propionic acid], the Ki on human glucagon receptor [1] was 198 nM. The same molecule yielded a Kb on human glucagon receptor [2] of 220 nM.

As for `Cc1cc2ccccc2nc1NC(CC(C)C)c1ccc(C(=O)NCCC(=O)O)cc1` (racemic) [Example 11, (+/−)-3-{4-[3-methyl-1-(3-methyl-quinolin-2-ylamino)-butyl]-benzoylamino}-propionic acid], the inhibition constant (Ki) at human glucagon receptor [1] was found to be 101 nM. On human glucagon receptor [2], this molecule gave a Kb of 91 nM.

As for `Cc1cc(NC(CC(C)C)c2ccc(C(=O)NCCC(=O)O)cc2)nc2cc(F)ccc12` (racemic) [Example 12, (+/−)-3-{4-[1-(7-fluoro-4-methyl-quinolin-2-ylamino)-3-methyl-butyl]-benzoylamino}-propionic acid], at human glucagon receptor [1], the inhibitory constant (Ki) was 242 nM. At human glucagon receptor [2], the Kb stood at 310 nM.

On to `CC(C)CC(Nc1ccc2cccc(Cl)c2n1)c1ccc(C(=O)NCCC(=O)O)cc1` (racemic) [Example 13, (+/−)-3-{4-[1-(8-chloro-quinolin-2-ylamino)-3-methyl-butyl]-benzoylamino}-propionic acid], for which, on human glucagon receptor [1], the Ki came out at 199 nM. This molecule also had a Kb at human glucagon receptor [2] of 140 nM.

Consider `CC(C)CC(Nc1ncc2ccccc2n1)c1ccc(C(=O)NCCC(=O)O)cc1` (racemic) [Example 14, (+/−)-3-{4-[3-methyl-1-(quinazolin-2-ylamino)-butyl]-benzoylamino}-propionic acid], for which the Kb on human glucagon receptor [2] came out at 3100 nM.

Take `CC(C)CC(Nc1ccc2ccc(C(F)(F)F)cc2n1)c1ccc(C(=O)NCCC(=O)O)cc1` (racemic) [Example 15, (+/−)3-(4-(3-methyl-1-(7-(trifluoromethyl)quinolin-2-ylamino)butyl)benzamido)propanoic acid]: the inhibition constant (Ki) at human glucagon receptor [1] stood at 479 nM. At human glucagon receptor [2], this molecule registered a Kb of 1100 nM.

For the molecule `CC(C)CC(Nc1ccc2cc(C(F)(F)F)ccc2n1)c1ccc(C(=O)NCCC(=O)O)cc1` (racemic) [Example 16, (+/−)3-(4-(3-methyl-1-(6-(trifluoromethyl)quinolin-2-ylamino)butyl)benzamido)propanoic acid], the Ki on human glucagon receptor [1] stood at 91 nM. Further, the Kb on human glucagon receptor [2] was determined as 800 nM.

In the case of `Cc1cc2ccccc2nc1NC(c1ccc(C(=O)NCCC(=O)O)cc1)C1CC(C)(C)C1` (racemic) [Example 19, (+/−)-3-{4-[(3,3-dimethyl-cyclobutyl)-(3-methyl-quinolin-2-ylamino)-methyl]-benzoylamino}-propionic acid], the inhibition constant (Ki) on human glucagon receptor [1] amounted to 74 nM. In addition, the Kb at human glucagon receptor [2] is 64 nM.

Consider `Cc1cc2cc(F)ccc2nc1NC(c1ccc(C(=O)NCCC(=O)O)cc1)C1CC(C)(C)C1` (racemic) [Example 20, (+/−)-3-{4-[(3,3-dimethyl-cyclobutyl)-(6-fluoro-3-methyl-quinolin-2-ylamino)-methyl]-benzoylamino}-propionic acid], for which the Ki at human glucagon receptor [1] was 39 nM. The molecule also gave a Kb on human glucagon receptor [2] of 64 nM.

In the case of `Cc1cc2ccc(F)cc2nc1NC(c1ccc(C(=O)NCCC(=O)O)cc1)C1CC(C)(C)C1` (racemic) [Example 21, (+/−)-3-{4-[(3,3-dimethyl-cyclobutyl)-(7-fluoro-3-methyl-quinolin-2-ylamino)-methyl]-benzoylamino}-propionic acid], the Ki at human glucagon receptor [1] came to 133 nM. For the same molecule, the Kb on human glucagon receptor [2] is 160 nM.

As for `CC1(C)CC(C(Nc2cnc3cc(F)ccc3c2)c2ccc(C(=O)NCCC(=O)O)cc2)C1` (racemic) [Example 22, (+/−)3-(4-((3,3-dimethylcyclobutyl)(7-fluoroquinolin-3-ylamino)methyl)benzamido)propanoic acid], on human glucagon receptor [1], the inhibition constant Ki worked out at 25 nM. Also, the Kb at human glucagon receptor [2] is 47 nM.

As for `CC1(C)CC(C(Nc2cnc3ccc(F)cc3c2)c2ccc(C(=O)NCCC(=O)O)cc2)C1` (racemic) [Example 23, (+/−)3-(4-((3,3-dimethylcyclobutyl)(6-fluoroquinolin-3-ylamino)methyl)benzamido)propanoic acid], on human glucagon receptor [1], the Ki worked out at 50 nM. Moreover, the Kb at human glucagon receptor [2] is 63 nM.

For the molecule `O=C(O)CCNC(=O)c1ccc(C(CCC(F)(F)F)Nc2cnc3ccccc3c2)cc1` (racemic) [Example 29, (+/−)-3-(4-(4,4,4-trifluoro-1-(quinolin-3-ylamino)butyl)benzamido)propanoic acid], the Ki on human glucagon receptor [1] was found to be 930 nM. The Kb on human glucagon receptor [2] worked out at 930 nM.

For `Cc1cc2ccccc2nc1NC(CC(C)C)c1ccc(C(=O)NCCC(=O)O)cc1` (single isomer, unassigned; isomer 1) [Example 30, 3-(4-(3-methyl-1-((3-methylquinolin-2-yl)amino)butyl)benzamido)propanoic acid, Isomer 1], the Ki on human glucagon receptor [1] amounted to 76 nM. Besides, the Kb at human glucagon receptor [2] is 69 nM.

For the molecule `Cc1cc2ccccc2nc1NC(c1ccc(C(=O)NCCC(=O)O)cc1)C1CC(C)(C)C1` (single isomer, unassigned; isomer 1) [Example 32, 3-{4-[(3,3-dimethyl-cyclobutyl)-(3-methyl-quinolin-2-ylamino)-methyl]-benzoylamino}-propionic acid, isomer 1], the inhibition constant (Ki) at human glucagon receptor [1] came out at 53 nM. On human glucagon receptor [2], this molecule displayed a Kb of 23 nM.

`Cc1cc2cc(F)ccc2nc1NC(c1ccc(C(=O)NCCC(=O)O)cc1)C1CC(C)(C)C1` (single isomer, unassigned; isomer 1) [Example 34, 3-{4-[(3,3-dimethyl-cyclobutyl)-(6-fluoro-3-methyl-quinolin-2-ylamino)-methyl]-benzoylamino}-propionic acid, isomer 1] came in with a Kb at human glucagon receptor [2] of 1180 nM.

`Cc1cc2ccccc2nc1NC(c1ccc(C(=O)NCCC(=O)O)cc1)C1CC(C)(C)C1` (single isomer, unassigned; isomer 2) [Example 33, 3-{4-[(3,3-dimethyl-cyclobutyl)-(3-methyl-quinolin-2-ylamino)-methyl]-benzoylamino}-propionic acid, isomer 2] yielded a Kb at human glucagon receptor [2] of 1820 nM.

Regarding `CC1(C)CC(C(Nc2cnc3ccccc3c2)c2ccc(C(=O)NCCC(=O)O)cc2)C1` (stereo not drawn) [Example 24, 3-(4-((3,3-dimethylcyclobutyl)(quinolin-3-ylamino)methyl)benzamido)propanoic acid], the Kb at human glucagon receptor [2] came to 140 nM.

For orientation: Ki means the dissociation constant of the complex between target and ligand, obtained from inhibition or displacement.
